Experimental data from ChEMBL document CHEMBL1914304 (J Med Chem, 2011).

Experiments:
[1] = test system: Raji; test: Cytotoxicity against human Raji cells after 72 hrs by luminescence assay; type: cell-based
[2] = test system: HEK293; test: Cytotoxicity against human HEK293 cells after 72 hrs by luminescence assay; type: cell-based; details: hek293, 72 h
[3] = Selectivity ratio of EC50 for human HepG2 cells to EC50 for Plasmodium falciparum
[4] = test system: BJ; test: Cytotoxicity against human BJ cells after 72 hrs by luminescence assay; type: cell-based
[5] = test system: HepG2; test: Cytotoxicity against human HepG2 cells after 72 hrs by luminescence assay; type: cell-based; details: hepg2, 72 h

Compound | Activity [1] | Activity [2] | selectivity ratio [3] | Activity [4] | Activity [5]
Cl.O=C(CCc1ccccc1)c1ccccc1OCC(O)CN1CCN(C(=O)c2ccccc2)CC1 (racemic) | Non-toxic | Non-toxic | > 10 | Non-toxic | Non-toxic
CN1CCN(CC(O)COc2ccccc2C(=O)CCc2ccccc2)CC1.Cl (racemic) | Non-toxic | Non-toxic | > 10 | Non-toxic | Non-toxic
CCN1CCN(CC(O)COc2ccccc2C(=O)CCc2ccccc2)CC1.Cl (racemic) | Non-toxic | Non-toxic | > 10 | Non-toxic | Non-toxic
Cl.O=C(CCc1ccccc1)c1ccccc1OCC(O)CN1CCOCC1 (racemic) | Non-toxic | Non-toxic | > 10 | Non-toxic | Non-toxic
Cc1cccc([N+]2(c3ccccc3)CCN(CC(O)COc3ccccc3C(=O)CCc3ccc(F)cc3)CC2)c1.[Cl-] (racemic) | Non-toxic | Non-toxic | > 10 | Non-toxic | Non-toxic
Cl.O=C(CCc1ccc(F)cc1)c1ccccc1OCC(O)CN1CCCCC1 (racemic) | Non-toxic | Non-toxic | > 10 | Non-toxic | Non-toxic
Cl.O=C(CCc1ccc(F)cc1)c1ccccc1OCC(O)CN1CCC(c2ccccc2)CC1 (racemic) | Non-toxic | Non-toxic | > 10 | Non-toxic | Non-toxic
Cl.O=C(CCc1ccc(F)cc1)c1ccccc1OCC(O)CN1CCC(Cc2ccccc2)CC1 (racemic) | Non-toxic | Non-toxic | > 10 | Non-toxic | Non-toxic
Cl.O=C(CCc1ccc(F)cc1)c1ccccc1OCC(O)CN1CCC(c2ccc(Cl)cc2)CC1 (racemic) | Non-toxic | Non-toxic | > 10 | Non-toxic | Non-toxic
Cl.O=C(CCc1ccc(F)cc1)c1ccccc1OCC(O)CN1CCC(O)(Cc2ccccc2)CC1 (racemic) | Non-toxic | Non-toxic | > 10 | Non-toxic | Non-toxic
Cl.O=C(CCc1ccc(F)cc1)c1ccccc1OCC(O)CN1CCC(O)(c2ccc(Cl)cc2)CC1 (racemic) | Non-toxic | Non-toxic | > 10 | Non-toxic | Non-toxic
Cl.O=C(CCc1ccc(F)cc1)c1ccccc1OCC(O)CN1CCN(c2ccccc2)CC1 (racemic) | Non-toxic | Non-toxic | > 10 | Non-toxic | Non-toxic
Cl.O=C(CCc1ccc(F)cc1)c1ccccc1OCC(O)CN1CCN(Cc2ccccc2)CC1 (racemic) | Non-toxic | Non-toxic | > 10 | Non-toxic | Non-toxic
Cc1ccccc1N1CCN(CC(O)COc2ccccc2C(=O)CCc2ccc(F)cc2)CC1.Cl (racemic) | Non-toxic | Non-toxic | > 10 | Non-toxic | Non-toxic
Cc1cccc(N2CCN(CC(O)COc3ccccc3C(=O)CCc3ccc(F)cc3)CC2)c1.Cl (racemic) | Non-toxic | Non-toxic | > 10 | Non-toxic | Non-toxic
Cc1ccc(N2CCN(CC(O)COc3ccccc3C(=O)CCc3ccc(F)cc3)CC2)cc1.Cl (racemic) | Non-toxic | Non-toxic | > 10 | Non-toxic | Non-toxic
COc1ccccc1N1CCN(CC(O)COc2ccccc2C(=O)CCc2ccc(F)cc2)CC1.Cl (racemic) | Non-toxic | Non-toxic | > 10 | Non-toxic | Non-toxic
COc1cccc(N2CCN(CC(O)COc3ccccc3C(=O)CCc3ccc(F)cc3)CC2)c1.Cl (racemic) | Non-toxic | Non-toxic | > 10 | Non-toxic | Non-toxic
COc1ccc(N2CCN(CC(O)COc3ccccc3C(=O)CCc3ccc(F)cc3)CC2)cc1.Cl (racemic) | Non-toxic | Non-toxic | > 10 | Non-toxic | Non-toxic

Compound | Activity [1] | Activity [2] | selectivity ratio [3] | Activity [4] | Activity [5]
Cl.O=C(CCc1ccc(F)cc1)c1ccccc1OCC(O)CN1CCN(c2ccccc2Cl)CC1 (racemic) | Non-toxic | Non-toxic | > 10 | Non-toxic | Non-toxic
Cl.O=C(CCc1ccc(F)cc1)c1ccccc1OCC(O)CN1CCN(c2ccc(Cl)cc2)CC1 (racemic) | Non-toxic | Non-toxic | > 10 | Non-toxic | Non-toxic
Cl.O=C(CCc1ccc(F)cc1)c1ccccc1OCC(O)CN1CCN(c2ccc(Cl)c(Cl)c2)CC1 (racemic) | Non-toxic | Non-toxic | > 10 | Non-toxic | Non-toxic
Cl.O=C(CCc1ccc(F)cc1)c1ccccc1OCC(O)CN1CCN(c2ccccc2F)CC1 (racemic) | Non-toxic | Non-toxic | > 10 | Non-toxic | Non-toxic
Cl.O=C(CCc1ccc(F)cc1)c1ccccc1OCC(O)CN1CCN(c2ccc(F)cc2)CC1 (racemic) | Non-toxic | Non-toxic | > 10 | Non-toxic | Non-toxic
Cl.O=C(CCc1ccc(F)cc1)c1ccccc1OCC(O)CN1CCN(c2ccc([N+](=O)[O-])cc2)CC1 (racemic) | Non-toxic | Non-toxic | > 10 | Non-toxic | Non-toxic
Cl.Nc1ccc(N2CCN(CC(O)COc3ccccc3C(=O)CCc3ccc(F)cc3)CC2)cc1 (racemic) | Non-toxic | Non-toxic | > 10 | Non-toxic | Non-toxic
Cl.O=C(CCc1ccc(F)cc1)c1ccccc1OCC(O)CN1CCN(c2ccc(O)cc2)CC1 (racemic) | Non-toxic | Non-toxic | > 10 | Non-toxic | Non-toxic
Cl.O=C(CCc1ccc(F)cc1)c1ccccc1OCC(O)CN1CCN(c2ccc(C(F)(F)F)cc2)CC1 (racemic) | Non-toxic | Non-toxic | > 10 | Non-toxic | Non-toxic
Cl.O=C(CCc1ccc(F)cc1)c1ccccc1OCC(O)CN1CCN(C(=O)c2ccccc2)CC1 (racemic) | Non-toxic | Non-toxic | > 10 | Non-toxic | Non-toxic
CN1CCN(CC(O)COc2ccccc2C(=O)CCc2ccc(F)cc2)CC1.Cl (racemic) | Non-toxic | Non-toxic | > 10 | Non-toxic | Non-toxic
CCN1CCN(CC(O)COc2ccccc2C(=O)CCc2ccc(F)cc2)CC1.Cl (racemic) | Non-toxic | Non-toxic | > 10 | Non-toxic | Non-toxic
Cl.O=C(CCc1ccc(F)cc1)c1ccccc1OCC(O)CN1CCOCC1 (racemic) | Non-toxic | Non-toxic | > 10 | Non-toxic | Non-toxic
Cl.O=C(CCc1ccccc1)c1cc(F)ccc1OCC(O)CN1CCC(Cc2ccccc2)CC1 (racemic) | Non-toxic | Non-toxic | > 10 | Non-toxic | Non-toxic
Cl.O=C(CCc1ccccc1)c1cc(F)ccc1OCC(O)CN1CCC(O)(Cc2ccccc2)CC1 (racemic) | Non-toxic | Non-toxic | > 10 | Non-toxic | Non-toxic
Cl.O=C(CCc1ccccc1)c1cc(F)ccc1OCC(O)CN1CCNCC1 (racemic) | Non-toxic | Non-toxic | > 10 | Non-toxic | Non-toxic
Cl.O=C(CCc1ccccc1)c1cc(F)ccc1OCC(O)CN1CCC(c2ccccc2)CC1 (racemic) | Non-toxic | Non-toxic | > 10 | Non-toxic | Non-toxic
Cl.O=C(CCc1ccccc1)c1cc(F)ccc1OCC(O)CN1CCN(c2ccc(Cl)cc2)CC1 (racemic) | Non-toxic | Non-toxic | > 10 | Non-toxic | Non-toxic
Cl.O=C(CCc1ccccc1)c1cc(F)ccc1OCC(O)CN1CCN(c2ccccc2)CC1 (racemic) | Non-toxic | Non-toxic | > 10 | Non-toxic | Non-toxic
